Here are results for four molecules from patent US5639884A, “Arylidene-heterocyclic derivatives and process for their preparation” (Farmitalia Carlo Erba S.r.l., priority 1991, dated 1997).

This assay addresses p45 v-abl tyrosine kinase. Nature of the assay: Exogenous Substrate Kinase Assay: p45 v-abl kinase inhibition. Type of assay: biochemical, Abelson murine leukemia virus. The conditions noted are these: (Val^5)-Angiotensin II phosphorylation; 40 ng abl-kinase; peptide 2 mM, ATP 50 μM; pH 8.0, 30° C.; triplicate determinations. From the text:
Tyrosine kinase purification. The enzyme used in our test was the p45 v-abl tyrosine kinase which represents the catalytic domaine of the Abelson tyrosine kinase (isolated from the Abelson murine leukemia virus). The p45 v-abl kinase was produced and isolated as described by Wang et al. in J. Biol. Chem. 260, 64 (1985) and by Ferguson et al. in J. Biol. Chem. 260, 3652 (1985) and in Biochem. J. 257, 321 (1989).
Exogenous Substrate Kinase Assay. (Val^5)-Angiotensin II phosphorylation was performed by incubation with 40 ng of purified abl-kinase and (γ-^32 P)-ATP, in 50 μl of buffer containing Tris-HCl 25 mM, pH 8.0, MgCl2 10 mM and dithiothreitol 0.1 mM (kinase buffer). The reaction mixture was incubated for the indicated time at 30° C. and the reaction stopped by adding 50 μl of 5% trichloroacetic acid. After a brief incubation on ice, tubes were centrifuged. The supernatants were spotted on phosphocellulose paper squares (Whatman P-81) and washed extensively in acetic acid. The radioactivity bound to dried phosphocellulose squares was measured in a liquid scintillation counter. IC50 values were calculated from triplicate determinations of each experimental point. Each inhibitor was tested at concentrations ranging from […] in the presence of fixed concentrations of peptide (2 mM) and ATP (50 μM).

Structures are written as SMILES.

With `O=C1NC(=O)c2ccccc2C1=Cc1ccnc2ccccc12` [4-(4'-quinolyl)methylenehomophthalimide, (E,Z) -4-(4'-quinolyl)-methylenehomophthalimide], the IC50 (commonly the concentration that gives 50% inhibition) was 15 µM.
The result for `O=S1(=O)Nc2ccccc2C1=Cc1c[nH]c2ccccc12` [(E,Z)-3-(3'-indolyl)methylene-2,1-benzisothiazoline-2,2-dioxide] reads 113 µM.
The result for `O=S1(=O)Nc2ccccc2C1=Cc1ccc(O)cc1` [(E,Z)-3-(4'-hydroxyphenyl)methylene-2,1-benzisothiazoline-2,2-dioxide] reads 17 µM; that for `O=C1NC(=O)c2ccccc2C1=Cc1ccc(O)cc1` [(E,Z)-4-(4'-hydroxyphenyl)methylenehomophthalimide], 5 µM.
